Legend:
Type in all cases: in vivo
[1] = test system: IPOHE - Ivyleaf Morningglory (Ipomoea headrace); test: Field trial, post-emergence weed control in corn, IPOHE
Protocol: (§1) Field trials were conducted in Tennessee and Illinois (USA). The crop and weed species had been seeded and/or drill sown. In the case of post-emergence evaluation, seeded and/or drill sown plants were grown to a certain growth stage before application of the active ingredients (alone or as a mixture). In the case of pre-emergence evaluation, the application of the active ingredients was carried out after the plants were seeded and/or drilled sown. The trial was in the form of a randomized complete block. The percentage of weed control was assessed in several different instances after treatment until a maximum of 42 days after treatment, by comparison with untreated control plots by visual scoring. The herbicidal action was assessed qualitatively and quantitatively. To quantify the synergic effect resulting from the combination of mesotrione and pyridate, the inventors used the methodology described by Colby, in which a synergistic effect exists when the activity of a composition comprising both active compounds is greater than the sum of the activities of the two active compounds applied individually. The expected activity for the combination of mesotrione and pyridate can be calculated by the following so-called “Colby equation” (see S. R. Colby, “Calculating Synergistic and Antagonistic Responses of Herbicide Combinations”, Weeds 1967, 15, 20-22). Pa+b=(Pa+Pb)−(Pa*Pb/100) Wherein • Pa+b is the expected percent inhibition of weed growth by the combination of mesotrione and pyridate; • Pa is the percent inhibition of weed growth induced by mesotrione; • Pb is the percent inhibition of weed growth induced by pyridate. If the actual percent inhibition of weed growth induced by the combination of mesotrione and pyridate is greater than the expected percent inhibition (Pa+b) calculated from the Colby equation, then the activity of the combination is synergistic. The below Tables represent the herbicidal performance of the composition according to the invention, and also the herbicidal performance of the active ingredients alone, in controlling specific weeds. The expected percent inhibition of weed growth (derived from the Colby's equation) and the actual (observed) percent inhibition of weed growth is also presented in order to conclude on the synergistic effect of the combination according to the invention. Post-Emergence Herbicidal Performance of the Composition According to the Invention Against Broadleaf Weed in Corn.

[2] = test system: AMATA - Common Waterhemp (Amaranthus rudis); test: Field trial, post-emergence weed control in corn, AMATA
Protocol: as §1

[3] = test system: AMAPA - Palmer Pigweed (Amaranthus palmeri); test: Field trial, pre-emergence weed control in corn, AMAPA; details: mesotrione 3.85 oz/A, pyridate 6.84 oz/A, combination 3.85 + 6.84 oz/A
Protocol: (§2) Field trials were conducted in Tennessee and Illinois (USA). The crop and weed species had been seeded and/or drill sown. In the case of post-emergence evaluation, seeded and/or drill sown plants were grown to a certain growth stage before application of the active ingredients (alone or as a mixture). In the case of pre-emergence evaluation, the application of the active ingredients was carried out after the plants were seeded and/or drilled sown. The trial was in the form of a randomized complete block. The percentage of weed control was assessed in several different instances after treatment until a maximum of 42 days after treatment, by comparison with untreated control plots by visual scoring. The herbicidal action was assessed qualitatively and quantitatively. To quantify the synergic effect resulting from the combination of mesotrione and pyridate, the inventors used the methodology described by Colby, in which a synergistic effect exists when the activity of a composition comprising both active compounds is greater than the sum of the activities of the two active compounds applied individually. The expected activity for the combination of mesotrione and pyridate can be calculated by the following so-called “Colby equation” (see S. R. Colby, “Calculating Synergistic and Antagonistic Responses of Herbicide Combinations”, Weeds 1967, 15, 20-22). Pa+b=(Pa+Pb)−(Pa*Pb/100) Wherein • Pa+b is the expected percent inhibition of weed growth by the combination of mesotrione and pyridate; • Pa is the percent inhibition of weed growth induced by mesotrione; • Pb is the percent inhibition of weed growth induced by pyridate. If the actual percent inhibition of weed growth induced by the combination of mesotrione and pyridate is greater than the expected percent inhibition (Pa+b) calculated from the Colby equation, then the activity of the combination is synergistic. The below Tables represent the herbicidal performance of the composition according to the invention, and also the herbicidal performance of the active ingredients alone, in controlling specific weeds. The expected percent inhibition of weed growth (derived from the Colby's equation) and the actual (observed) percent inhibition of weed growth is also presented in order to conclude on the synergistic effect of the combination according to the invention. Pre-Emergence Herbicidal Performance of the Composition According to the Invention Against Broadleaf Weed in Corn.

[4] = test system: ELEIN - Goosegrass (Eleusine indica); test: Field trial, pre-emergence weed control in corn, ELEIN; details: mesotrione 3.85 oz/A, pyridate 6.84 oz/A, combination 3.85 + 6.84 oz/A
Protocol: as §2

[5] = test system: IPOHE - Ivyleaf Morningglory (Ipomoea headrace); test: Field trial, pre-emergence weed control in corn, IPOHE; details: mesotrione 3.85, pyridate 6.84, combination 3.85 + 6.84 (rate unit not given)
Protocol: as §2

[6] = test system: AMAPA - Palmer Pigweed (Amaranthus palmeri); test: Field trial, post-emergence weed control in corn, AMAPA; details: mesotrione 3 oz/A, pyridate 6.84 oz/A, combination 3 + 6.84 oz/A
Protocol: as §1

[7] = 8 days after treatment, mesotrione 2 oz/A, pyridate 2 oz/A, combination 2 + 2 oz/A
[8] = 8 days after treatment, mesotrione 3 oz/A, pyridate 3 oz/A, combination 3 + 3 oz/A
[9] = 8 days after treatment, mesotrione 3 oz/A, pyridate 6.84 oz/A, combination 3 + 6.84 oz/A
[10] = 16 days after treatment, mesotrione 2 oz/A, pyridate 2 oz/A, combination 2 + 2 oz/A
[11] = 16 days after treatment, mesotrione 3 oz/A, pyridate 3 oz/A, combination 3 + 3 oz/A
[12] = 16 days after treatment, mesotrione 3 oz/A, pyridate 6.84 oz/A, combination 3 + 6.84 oz/A
[13] = 21 days after treatment, mesotrione 2 oz/A, pyridate 2 oz/A, combination 2 + 2 oz/A
[14] = 21 days after treatment, mesotrione 3 oz/A, pyridate 3 oz/A, combination 3 + 3 oz/A
[15] = 21 days after treatment, mesotrione 3 oz/A, pyridate 6.84 oz/A, combination 3 + 6.84 oz/A
[16] = 7 days after treatment, mesotrione 2 oz./A, pyridate 2 oz./A, combination 2 + 2 oz./A
[17] = 7 days after treatment, mesotrione 3 oz./A, pyridate 3 oz./A, combination 3 + 3 oz./A
[18] = 7 days after treatment, mesotrione 3 oz./A, pyridate 6.84 oz./A, combination 3 + 6.84 oz./A
[19] = 14 days after treatment, mesotrione 2 oz./A, pyridate 2 oz./A, combination 2 + 2 oz./A
[20] = 14 days after treatment, mesotrione 3 oz./A, pyridate 3 oz./A, combination 3 + 3 oz./A
[21] = 14 days after treatment, mesotrione 3 oz./A, pyridate 6.84 oz./A, combination 3 + 6.84 oz./A
[22] = 28 days after treatment, mesotrione 2 oz./A, pyridate 2 oz./A, combination 2 + 2 oz./A
[23] = 28 days after treatment, mesotrione 3 oz./A, pyridate 3 oz./A, combination 3 + 3 oz./A
[24] = 28 days after treatment, mesotrione 3 oz./A, pyridate 6.84 oz./A, combination 3 + 6.84 oz./A

CCCCCCCCSC(=O)Oc1cc(Cl)nnc1-c1ccccc1 [pyridate, Pyridate] was tested, and the “Mean percentage of weed control (observed)” value (“Mean percentage” below) [1, 7] was 28%, the “Mean percentage” value [1, 8] was 40% and the “Mean percentage” value [1, 9] was 10%. For the same compound, the “Mean percentage” value [1, 10] was 18%, the “Mean percentage” value [1, 11] was 10% and the “Mean percentage” value [1, 12] was 23%. The “Mean percentage” value [1, 13] was 18%, the “Mean percentage” value [1, 14] was 10% and the “Mean percentage” value [1, 15] was 23%. For the same compound, the “Mean percentage” value [2, 16] was 0%, the “Mean percentage” value [2, 17] was 0% and the “Mean percentage” value [2, 18] was 10%. For the same compound, the “Mean percentage” value [2, 19] was 0%, the “Mean percentage” value [2, 20] was 0% and the “Mean percentage” value [2, 21] was 12%. For the same compound, the “Mean percentage” value [2, 22] was 0%, the “Mean percentage” value [2, 23] was 0% and the “Mean percentage” value [2, 24] was 6%. For the same compound, the “Mean percentage” value ([3]; 7 days after treatment) was 37%, the “Mean percentage” value ([3]; 14 days after treatment) was 42% and the “Mean percentage” value ([3]; 28 days after treatment) was 20%. For the same compound, the “Mean percentage” value ([3]; 42 days after treatment) was 20%, the “Mean percentage” value ([4]; 7 days after treatment) was 37% and the “Mean percentage” value ([4]; 14 days after treatment) was 37%. The “Mean percentage” value ([5]; 7 days after treatment) was 37%, the “Mean percentage” value ([5]; 14 days after treatment) was 42% and the “Mean percentage” value ([5]; 28 days after treatment) was 20%. For the same compound, the “Mean percentage” value ([5]; 42 days after treatment) was 20%, the “Mean percentage” value ([6]; 8 days after treatment) was 23% and the “Mean percentage” value ([6]; 16 days after treatment) was 33%. The “Mean percentage” value ([6]; 21 days after treatment) was 33%.

CS(=O)(=O)c1ccc(C(=O)C2C(=O)CCCC2=O)c([N+](=O)[O-])c1 [mesotrione, Mesotrione] was tested, and the “Mean percentage” value [1, 7] was 43%, the “Mean percentage” value [1, 8] was 68% and the “Mean percentage” value [1, 9] was 65%. For the same compound, the “Mean percentage” value [1, 10] was 35%, the “Mean percentage” value [1, 11] was 63% and the “Mean percentage” value [1, 12] was 78%. For the same compound, the “Mean percentage” value [1, 13] was 38%, the “Mean percentage” value [1, 14] was 60% and the “Mean percentage” value [1, 15] was 75%. For the same compound, the “Mean percentage” value [2, 16] was 73%, the “Mean percentage” value [2, 17] was 73% and the “Mean percentage” value [2, 18] was 68%. For the same compound, the “Mean percentage” value [2, 19] was 75%, the “Mean percentage” value [2, 20] was 73% and the “Mean percentage” value [2, 21] was 80%. For the same compound, the “Mean percentage” value [2, 22] was 73%, the “Mean percentage” value [2, 23] was 68% and the “Mean percentage” value [2, 24] was 85%. The “Mean percentage” value ([3]; 7 days after treatment) was 62%, the “Mean percentage” value ([3]; 14 days after treatment) was 64% and the “Mean percentage” value ([3]; 28 days after treatment) was 40%. The “Mean percentage” value ([3]; 42 days after treatment) was 34%, the “Mean percentage” value ([4]; 7 days after treatment) was 65% and the “Mean percentage” value ([4]; 14 days after treatment) was 78%. The “Mean percentage” value ([5]; 7 days after treatment) was 62%, the “Mean percentage” value ([5]; 14 days after treatment) was 64% and the “Mean percentage” value ([5]; 28 days after treatment) was 40%. For the same compound, the “Mean percentage” value ([5]; 42 days after treatment) was 34%, the “Mean percentage” value ([6]; 8 days after treatment) was 53% and the “Mean percentage” value ([6]; 16 days after treatment) was 55%. For the same compound, the “Mean percentage” value ([6]; 21 days after treatment) was 55%.

Source: patent US11690377B2, “Herbicidal composition and method of use thereof” (Belchim Crop Protection NV, priority 2017, dated 2023)
